How the values were obtained:
Assay in all cases: relative viability (nuclei count vs DMSO), 5 days (fraction); higher = more cells survive
IPA-3 + Olaparib = compound: C1=CC=C2C(=C1)C=CC(=C2SSC3=C(C=CC4=CC=CC=C43)O)O [IPA-3] + O=C(c1cc(Cc2n[nH]c(=O)c3ccccc23)ccc1F)N1CCN(C(=O)C2CC2)CC1 [Olaparib] (partner 8 µM)
Outline: (§1)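 Relative viability is defined as nuclei in treated wells over nuclei in vehicle wells. Duplicate plates were run and medians reported. Lung cancer cell lines in 1536-well plates were dosed by pin tool one day after seeding, with one drug or with a fixed anchor-drug dose plus five library-drug doses (not always all listed) in √10 steps, and nuclei were counted after 5 days.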

Doramapimod + Phenformin = compound: Cc1ccc(-n2nc(C(C)(C)C)cc2NC(=O)Nc2ccc(OCCN3CCOCC3)c3ccccc23)cc1 [Doramapimod] + N=C(N)NC(=N)NCCc1ccccc1 [Phenformin] (partner 250 µM)
Outline: as §1

Doramapimod + Pemetrexed = compound: Cc1ccc(-n2nc(C(C)(C)C)cc2NC(=O)Nc2ccc(OCCN3CCOCC3)c3ccccc23)cc1 [Doramapimod] + Nc1nc2[nH]cc(CCc3ccc(C(=O)N[C@@H](CCC(=O)O)C(=O)O)cc3)c2c(=O)[nH]1 [Pemetrexed] (partner 0.2 µM)
Outline: as §1

Doramapimod + Olaparib = compound: Cc1ccc(-n2nc(C(C)(C)C)cc2NC(=O)Nc2ccc(OCCN3CCOCC3)c3ccccc23)cc1 [Doramapimod] + O=C(c1cc(Cc2n[nH]c(=O)c3ccccc23)ccc1F)N1CCN(C(=O)C2CC2)CC1 [Olaparib] (partner 8 µM)
Outline: as §1

Cell Line | relative viability (IPA-3 + Olaparib; first compound 0.2 µM) | relative viability (IPA-3 + Olaparib; first compound 0.6325 µM) | relative viability (IPA-3 + Olaparib; first compound 2 µM) | relative viability (IPA-3 + Olaparib; first compound 6.325 µM) | relative viability (IPA-3 + Olaparib; first compound 20 µM) | relative viability (Doramapimod + Phenformin; first compound 0.02 µM) | relative viability (Doramapimod + Phenformin; first compound 0.06325 µM) | relative viability (Doramapimod + Phenformin; first compound 0.2 µM) | relative viability (Doramapimod + Phenformin; first compound 0.6325 µM) | relative viability (Doramapimod + Phenformin; first compound 2 µM) | relative viability (Doramapimod + Pemetrexed; first compound 0.02 µM) | relative viability (Doramapimod + Pemetrexed; first compound 0.06325 µM) | relative viability (Doramapimod + Pemetrexed; first compound 0.2 µM) | relative viability (Doramapimod + Pemetrexed; first compound 0.6325 µM) | relative viability (Doramapimod + Pemetrexed; first compound 2 µM) | relative viability (Doramapimod + Olaparib; first compound 0.02 µM) | relative viability (Doramapimod + Olaparib; first compound 0.06325 µM) | relative viability (Doramapimod + Olaparib; first compound 0.2 µM) | relative viability (Doramapimod + Olaparib; first compound 0.6325 µM) | relative viability (Doramapimod + Olaparib; first compound 2 µM)
NCI-H460 | 0.575 | 0.393 | 0.454 | 0.418 | 0.447 | 0.51 | 0.54 | 0.581 | 0.595 | 0.454 | 0.0629 | 0.0546 | 0.0497 | 0.0506 | 0.0521 | 0.453 | 0.431 | 0.422 | 0.459 | 0.419
RERF-LC-KJ | 0.92 | 0.942 | 0.982 | 0.771 | 0.424 | 0.401 | 0.443 | 0.395 | 0.472 | 0.458 | 0.471 | 0.457 | 0.474 | 0.367 | 0.501 | 0.916 | 0.864 | 1.08 | 1.01 | 0.887
LCLC-103H | 0.765 | 0.693 | 0.78 | 0.681 | 0.789 | 0.322 | 0.345 | 0.298 | 0.322 | 0.32 | 0.436 | 0.417 | 0.413 | 0.428 | 0.424 | 0.741 | 0.786 | 0.745 | 0.758 | 0.764
HCC-15 | 0.842 | 0.699 | 0.694 | 0.741 | 0.728 | 0.481 | 0.467 | 0.478 | – | 0.365 | 0.225 | 0.231 | 0.245 | 0.211 | 0.224 | 0.675 | 0.692 | 0.675 | 0.654 | 0.623
H3255 | 0.605 | 0.555 | 0.565 | 0.518 | 0.562 | 0.356 | 0.345 | 0.391 | 0.366 | 0.411 | 0.577 | 0.56 | 0.562 | 0.559 | 0.525 | 0.591 | 0.567 | 0.573 | 0.567 | 0.539
NCI-H1792 | 0.506 | 0.48 | – | 0.395 | 0.225 | 0.389 | 0.381 | 0.217 | 0.476 | 0.214 | 0.869 | 0.761 | 0.707 | 0.743 | 0.651 | 0.408 | 0.459 | 0.457 | 0.486 | 0.268
NCI-H596 | 0.638 | 0.708 | 0.773 | 0.768 | 0.748 | 0.672 | 0.689 | 0.672 | 0.795 | 0.703 | 0.484 | 0.52 | 0.468 | 0.522 | 0.479 | 0.747 | 0.695 | 0.749 | 0.73 | 0.788
NCI-H2087 | 0.685 | 0.631 | 0.642 | 0.474 | 0.763 | 0.403 | 0.459 | 0.411 | 0.415 | 0.412 | 0.589 | 0.646 | 0.597 | 0.573 | 0.61 | 0.562 | 0.577 | 0.525 | 0.675 | 0.481

— the supplement of paper PMC10307832
